Laboratory results from US11230547B2, “Purine inhibitors of human phosphatidylinositol 3-kinase delta” (Merck Sharp & Dohme Corp., priority 2017, dated 2022).

How the values were obtained:
PI3Kdelta = PI3Kdelta (Homo sapiens (Human), UniProt O00329); assay: HTRF PI3K biochemical assay, delta isoform; details: 0.3 nM enzyme, 100 uM ATP, 5 uM PIP2, form screened per table
Description: (§1) HTRF PI3K Biochemical Assay to Measure Intrinsic Potency of Compound Inhibitors
(§2) The PI3-Kinase biochemical assays were developed to measure the intrinsic potency and compound dependent inhibition of the alpha, beta, delta, and gamma PI3K isoform enzymes. This assay was developed and further optimized from a kit produced by Upstate (Millipore catalog #33-047) (Millipore Sigma, Billerica Mass., USA) and has been configured for high throughput screening (HTS) and structure-activity relationship (SAR) screening. Briefly, this procedure exploits the exquisite specificity and high affinity binding of […] phosphatidyl(3,4,5)triphosphate (PIP3) to the GRP1 pleckstrin homology (PH) domain to generate the signal. In the absence of PIP3, an HTRF (Homogeneous Time-Resolved Fluorescence energy transfer) complex is formed consisting of europium (u)-labeled anti-GST, GST tagged GRP1-PH domain, biotin-PIP3 (biotinylated-PIP3) and streptavidin conjugated APC (Allophycocyanin). The native PIP3 produced by PI3-Kinase activity disrupts in a competitive manner the biotin-PIP3 from the pleckstrin homology (PH) domain, resulting in the loss of energy transfer (HTRF complex) and a decrease in the signal. The format of this assay is the same for all 4 isoforms of PI3K; the differences lie in the concentration of enzyme used to achieve robust assay window. The alpha, beta, and delta assays are run at 0.5, 1, and 0.3 nM enzymes and the gamma assay is run at 5 nM enzyme. The ATP concentration is 100 uM in the alpha, beta, and delta assays and 50 uM adenosine triphosphate (ATP) in the gamma assay. All reactions are run at 5 uM PIP2.
(§3) Compounds are serially diluted (3-fold in 100% DMSO) across a 384-well polypropylene source plated from column 3 to column 12 and column 13 to column 22, to yield 10 concentration dose response for each test compound. Columns 1, 2, 23 and 24 contain either only DMSO or pharmacological known control inhibitor. Once titrations are made, 2.5 nL of the compounds on 384 well plates are reformatted and transferred by acoustic dispense in quadruplicates to a 1536 assay plate (Greiner) to assay across all four PI3K isoform enzymes.
(§4) The PI3-Kinase biochemical assay was optimized using the HTRF kit provided by Upstate (Millipore). The assay kit contains six reagents: 1) 4× Reaction Buffer; 2) native PIP2 (substrate); 3) Stop (EDTA); 4) Detection Mix A (Streptavidin-APC); 5) Detection Mix B (Eu-labeled Anti-GST plus GST-tagged PH-domain); 6) Detection Mix C. In addition, the following items were obtained or purchased; PI3Kinase (catalog #'s alpha 14-602, beta 14-603, gamma 14-558 and delta 14-604 from Upstate Biotechnology now EMD Millipore, Mahopac, N.Y., USA), dithiothreitol (Sigma-Aldrich Corp. (St. Louis, Mo., USA) Catalog #D-5545), Adenosine-5′ triphosphate (InVitrogen (Waltham, Mass., USA), Cat#AS001A), native PIP3 (PI(3,4,5)P3, diC8, H^+, CELLSIGNALS, INC., (Columbus, Ohio, USA) Cat #907) DMSO ((Sigma-Aldrich Corp. (St. Louis, Mo., USA) Catalog #472301).
(§5) PI3Kinase Reaction Buffer is prepared by dilution the stock 1:4 with de-ionized water. DTT (DL-Dithiothreitol), phosphatidylinositol 4,5-bisphosphate (PIP2) and Biotin-PIP3 were added to 1536 assay plate at a final concentration of 5 mM, […] and 25 nM on the day of use. Enzyme addition and compound pre-incubation are initiated by the addition of 1.25 ul of PI3K (at twice its final concentration) in the 1× reaction buffer to all wells using a BioRaptr™ (Beckman Coulter, Waltham, Mass. USA). Plates are incubated at room temperature for 15 minutes. Reactions are initiated by addition of 1.25 ul of 2× substrate solution (PIP2 and ATP in 1× reaction buffer) using BioRaptr™. Plates are incubated in humidified chamber at room temperature for one hour. Reactions are quenched by addition of 0.625 uL of stop solution to all wells using the BioRaptr™. […]

PI3Kalpha = PI3Kalpha (Homo sapiens (Human), UniProt P42336); assay: HTRF PI3K biochemical assay, alpha isoform (selectivity versus delta); details: relative ratio PI3K-alpha IC50 value / PI3K-delta IC50 value
Chain of PI3Kalpha (P42336 whole entry, canonical isoform): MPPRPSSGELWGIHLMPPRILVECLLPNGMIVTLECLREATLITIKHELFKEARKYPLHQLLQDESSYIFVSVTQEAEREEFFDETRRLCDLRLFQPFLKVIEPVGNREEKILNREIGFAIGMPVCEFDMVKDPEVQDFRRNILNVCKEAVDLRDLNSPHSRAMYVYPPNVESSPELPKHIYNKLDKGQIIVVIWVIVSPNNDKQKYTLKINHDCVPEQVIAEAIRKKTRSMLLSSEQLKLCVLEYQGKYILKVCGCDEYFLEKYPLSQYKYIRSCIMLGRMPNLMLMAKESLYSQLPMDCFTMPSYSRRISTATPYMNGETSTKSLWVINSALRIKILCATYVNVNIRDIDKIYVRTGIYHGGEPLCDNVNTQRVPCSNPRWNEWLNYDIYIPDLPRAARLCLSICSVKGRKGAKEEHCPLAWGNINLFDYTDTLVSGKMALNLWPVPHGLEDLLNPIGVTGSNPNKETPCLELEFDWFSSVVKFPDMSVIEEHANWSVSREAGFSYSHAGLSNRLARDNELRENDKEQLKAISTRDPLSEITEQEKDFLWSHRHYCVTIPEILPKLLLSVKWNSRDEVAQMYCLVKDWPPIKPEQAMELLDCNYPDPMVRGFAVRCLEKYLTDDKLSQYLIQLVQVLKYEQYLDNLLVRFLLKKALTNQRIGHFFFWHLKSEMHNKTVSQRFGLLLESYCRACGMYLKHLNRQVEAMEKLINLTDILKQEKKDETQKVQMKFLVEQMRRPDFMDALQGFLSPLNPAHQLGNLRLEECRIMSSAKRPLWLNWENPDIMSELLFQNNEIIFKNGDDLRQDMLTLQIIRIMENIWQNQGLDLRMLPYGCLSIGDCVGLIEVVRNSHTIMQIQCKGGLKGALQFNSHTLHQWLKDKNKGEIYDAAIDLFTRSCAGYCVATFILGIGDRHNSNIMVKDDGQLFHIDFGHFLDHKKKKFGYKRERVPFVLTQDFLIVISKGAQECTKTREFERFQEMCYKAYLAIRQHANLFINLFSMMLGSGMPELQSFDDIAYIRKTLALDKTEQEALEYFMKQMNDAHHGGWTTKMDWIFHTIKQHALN
Chain of PI3Kalpha (P27986 whole entry partner, canonical isoform): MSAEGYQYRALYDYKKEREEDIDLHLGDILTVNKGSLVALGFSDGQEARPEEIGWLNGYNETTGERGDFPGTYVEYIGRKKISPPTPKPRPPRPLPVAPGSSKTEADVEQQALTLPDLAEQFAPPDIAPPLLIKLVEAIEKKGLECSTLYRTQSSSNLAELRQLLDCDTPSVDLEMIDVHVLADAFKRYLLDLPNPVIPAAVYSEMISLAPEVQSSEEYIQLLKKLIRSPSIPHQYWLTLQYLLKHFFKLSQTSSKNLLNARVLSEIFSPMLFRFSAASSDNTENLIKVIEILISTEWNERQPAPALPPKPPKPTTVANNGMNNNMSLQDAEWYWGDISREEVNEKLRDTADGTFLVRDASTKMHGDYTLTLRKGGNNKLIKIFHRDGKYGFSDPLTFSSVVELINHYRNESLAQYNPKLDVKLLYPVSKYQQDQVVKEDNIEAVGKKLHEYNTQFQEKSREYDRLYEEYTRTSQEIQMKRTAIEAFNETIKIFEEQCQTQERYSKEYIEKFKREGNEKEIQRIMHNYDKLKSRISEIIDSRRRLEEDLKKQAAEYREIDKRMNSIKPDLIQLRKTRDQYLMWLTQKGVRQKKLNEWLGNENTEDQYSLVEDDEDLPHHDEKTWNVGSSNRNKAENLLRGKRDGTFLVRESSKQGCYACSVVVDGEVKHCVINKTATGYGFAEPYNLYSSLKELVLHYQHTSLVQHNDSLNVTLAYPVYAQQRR
Description: as §1, §2, §3, §4, §5

Chain of PI3Kdelta (O00329 whole entry, canonical isoform): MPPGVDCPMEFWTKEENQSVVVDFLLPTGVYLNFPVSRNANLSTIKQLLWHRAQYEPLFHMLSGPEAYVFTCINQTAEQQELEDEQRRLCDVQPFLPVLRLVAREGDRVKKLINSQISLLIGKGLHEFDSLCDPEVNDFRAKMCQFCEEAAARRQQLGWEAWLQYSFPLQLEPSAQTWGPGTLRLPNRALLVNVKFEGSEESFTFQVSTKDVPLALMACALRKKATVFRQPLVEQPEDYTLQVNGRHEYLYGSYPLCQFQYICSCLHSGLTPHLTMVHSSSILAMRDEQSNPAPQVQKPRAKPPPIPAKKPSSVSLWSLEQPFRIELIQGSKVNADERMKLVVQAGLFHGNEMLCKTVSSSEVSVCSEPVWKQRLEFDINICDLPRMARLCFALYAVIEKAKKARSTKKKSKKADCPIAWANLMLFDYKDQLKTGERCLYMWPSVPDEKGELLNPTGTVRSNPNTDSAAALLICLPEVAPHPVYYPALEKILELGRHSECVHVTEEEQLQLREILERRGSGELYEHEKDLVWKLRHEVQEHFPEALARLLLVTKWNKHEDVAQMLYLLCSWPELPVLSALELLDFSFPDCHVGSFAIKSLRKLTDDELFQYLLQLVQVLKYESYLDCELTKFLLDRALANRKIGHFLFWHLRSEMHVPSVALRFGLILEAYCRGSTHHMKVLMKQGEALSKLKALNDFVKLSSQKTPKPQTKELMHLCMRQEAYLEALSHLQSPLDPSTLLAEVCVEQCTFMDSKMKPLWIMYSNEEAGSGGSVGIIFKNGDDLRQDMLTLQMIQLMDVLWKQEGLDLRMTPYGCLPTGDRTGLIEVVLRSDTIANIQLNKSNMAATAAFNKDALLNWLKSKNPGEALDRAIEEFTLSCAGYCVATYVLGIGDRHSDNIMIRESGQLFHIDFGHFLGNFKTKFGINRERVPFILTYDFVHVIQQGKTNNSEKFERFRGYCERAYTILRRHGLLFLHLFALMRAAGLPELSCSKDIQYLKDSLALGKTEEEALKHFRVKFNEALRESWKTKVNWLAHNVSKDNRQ
Chain of PI3Kdelta (P27986 whole entry partner, canonical isoform): as the sequence (P27986 whole entry partner, canonical isoform) above

SMILES	IC50 (PI3Kdelta)	Selectivity versus PI3Kalpha (PI3Kalpha)
N#Cc1cnc(-c2cccc3cnccc23)nc1N1C[C@@H]2CC1CN2c1cccc(F)c1 (stereo in doubt) [Compound 1-21, 4-[(1R,4S)-5-(3-fluorophenyl)-2,5-diazabicyclo[2.2.1]hept-2-yl]-2-isoquinolin-5-ylpyrimidine-5-carbonitrile]	110 nM	>10
N#Cc1cnc(N2CCc3[nH]ncc3C2)nc1N1CC2C[C@H]1CN2c1cccc(F)c1 (stereo in doubt) [Compound 1-22, 4-[(1S,4R)-5-(3-fluorophenyl)-2,5-diazabicyclo[2.2.1]hept-2-yl]-2-(1,4,6,7-tetrahydro-5H-pyrazolo[4,3-c]pyridin-5-yl)pyrimidine-5-carbonitrile]	950 nM	10
N#Cc1cnc(N2CCOCC2)nc1N1CC2C[C@H]1CN2c1cccc(F)c1 (stereo in doubt) [Compound 1-23, 4-[(1S,4R)-5-(3-fluorophenyl)-2,5-diazabicyclo[2.2.1]hept-2-yl]-2-morpholin-4-ylpyrimidine-5-carbonitrile]	400 nM	>10
Cn1cc(-c2ncc(C#N)c(N3CC4C[C@H]3CN4C(=O)C3CC3)n2)cn1 (stereo in doubt) [Compound 2-1, 4-[(1S,4R)-5-(cyclopropylcarbonyl)-2,5-diazabicyclo[2.2.1]hept-2-yl]-2-(1-methyl-1H-pyrazol-4-yl)pyrimidine-5-carbonitrile]	160 nM	>10
Cn1cc(-c2ncc(C#N)c(N3CC4C[C@H]3CN4S(=O)(=O)C3CC3)n2)cn1 (stereo in doubt) [Compound 2-2, 4-[(1S,4R)-5-(cyclopropylsulfonyl)-2,5-diazabicyclo[2.2.1]hept-2-yl]-2-(1-methyl-1H-pyrazol-4-yl)pyrimidine-5-carbonitrile]	1200 nM	>10
Cn1cc(-c2ncc(C#N)c(N3CC4C[C@H]3CN4CC3CC3)n2)cn1 (stereo in doubt) [Compound 2-3, 4-[(1S,4R)-5-(cyclopropylmethyl)-2,5-diazabicyclo[2.2.1]hept-2-yl]-2-(1-methyl-1H-pyrazol-4-yl)pyrimidine-5-carbonitrile]	1400 nM	8
CCNC(=O)N1C[C@@H]2CC1CN2c1nc(-c2cnn(C)c2)ncc1C#N (stereo in doubt) [Compound 2-4, (1R,4S)-5-[5-cyano-2-(1-methyl-1H-pyrazol-4-yl)pyrimidin-4-yl]-N-ethyl-2,5-diazabicyclo[2.2.1]heptane-2-carboxamide]	2200 nM	5
Cn1cc(-c2ncc(C#N)c(N3CC4C[C@H]3CN4C(=O)C(C)(C)C)n2)cn1 (stereo in doubt) [Compound 2-5, 4-[(1S,4R)-5-(2,2-dimethylpropanoyl)-2,5-diazabicyclo[2.2.1]hept-2-yl]-2-(1-methyl-1H-pyrazol-4-yl)pyrimidine-5-carbonitrile]	190 nM	>10
Cn1cc(-c2ncc(C#N)c(N3CC4C[C@H]3CN4C(=O)C(C)(C)CF)n2)cn1 (stereo in doubt) [Compound 2-6, 4-[(1S,4R)-5-(3-fluoro-2,2-dimethylpropanoyl)-2,5-diazabicyclo[2.2.1]hept-2-yl]-2-(1-methyl-1H-pyrazol-4-yl)pyrimidine-5-carbonitrile]	160 nM	>10
Cn1cc(-c2ncc(C#N)c(N3CC4C[C@H]3CN4C(=O)C3(C)COC3)n2)cn1 (stereo in doubt) [Compound 2-7, 4-{(1S,4R)-5-[(3-methyloxetan-3-yl)carbonyl]-2,5-diazabicyclo[2.2.1]hept-2-yl}-2-(1-methyl-1H-pyrazol-4-yl)pyrimidine-5-carbonitrile]	320 nM	>10
COCC1(C(=O)N2C[C@@H]3CC2CN3c2nc(-c3cnn(C)c3)ncc2C#N)CC1 (stereo in doubt) [Compound 2-8, 4-[(1S,4R)-5-{[1-(methoxymethyl)cyclopropyl]carbonyl}-2,5-diazabicyclo[2.2.1]hept-2-yl]-2-(1-methyl-1H-pyrazol-4-yl)pyrimidine-5-carbonitrile]	270 nM	>10
Cn1cc(-c2ncc(C#N)c(N3CC4C[C@H]3CN4C(=O)C3CCC3)n2)cn1 (stereo in doubt) [Compound 2-9, 4-[(1S,4R)-5-(cyclobutylcarbonyl)-2,5-diazabicyclo[2.2.1]hept-2-yl]-2-(1-methyl-1H-pyrazol-4-yl)pyrimidine-5-carbonitrile]	330 nM	>10
Cn1cc(-c2ncc(C#N)c(N3CC4C[C@H]3CN4C(=O)c3cccs3)n2)cn1 (stereo in doubt) [Compound 2-10, 2-(1-methyl-1H-pyrazol-4-yl)-4-[(1S,4R)-5-(thiophen-2-ylcarbonyl)-2,5-diazabicyclo[2.2.1]hept-2-yl]pyrimidine-5-carbonitrile]	500 nM	>10
Cn1cc(-c2ncc(C#N)c(N3CC4C[C@H]3CN4C(=O)c3cocn3)n2)cn1 (stereo in doubt) [Compound 2-11, 2-(1-methyl-1H-pyrazol-4-yl)-4-[(1S,4R)-5-(1,3-oxazol-4-ylcarbonyl)-2,5-diazabicyclo[2.2.1]hept-2-yl]pyrimidine-5-carbonitrile]	1100 nM	>10
Cn1cc(-c2ncc(C#N)c(N3CC4C[C@H]3CN4C(=O)CC3COC3)n2)cn1 (stereo in doubt) [Compound 2-12, 2-(1-methyl-1H-pyrazol-4-yl)-4-[(1S,4R)-5-(oxetan-3-ylacetyl)-2,5-diazabicyclo[2.2.1]hept-2-yl]pyrimidine-5-carbonitrile]	480 nM	10
CC(C)S(=O)(=O)N1C[C@@H]2CC1CN2c1nc(-c2cnn(C)c2)ncc1C#N (stereo in doubt) [Compound 2-13, 4-{(1S,4R)-5-[(1-methylethyl)sulfonyl]-2,5-diazabicyclo[2.2.1]hept-2-yl}-2-(1-methyl-1H-pyrazol-4-yl)pyrimidine-5-carbonitrile]	470 nM	>10
CCCS(=O)(=O)N1C[C@@H]2CC1CN2c1nc(-c2cnn(C)c2)ncc1C#N (stereo in doubt) [Compound 2-14, 2-(1-methyl-1H-pyrazol-4-yl)-4-[(1S,4R)-5-(propylsulfonyl)-2,5-diazabicyclo[2.2.1]hept-2-yl]pyrimidine-5-carbonitrile]	620 nM	>10
Cn1cc(-c2ncc(C#N)c(N3CC4C[C@H]3CN4S(=O)(=O)C3CCCC3)n2)cn1 (stereo in doubt) [Compound 2-15, 4-[(1S,4R)-5-(cyclopentylsulfonyl)-2,5-diazabicyclo[2.2.1]hept-2-yl]-2-(1-methyl-1H-pyrazol-4-yl)pyrimidine-5-carbonitrile]	650 nM	>10
Cn1cc(-c2ncc(C#N)c(N3CC4C[C@H]3CN4CCCF)n2)cn1 (stereo in doubt) [Compound 2-16, 4-[(1S,4R)-5-(3-fluoropropyl)-2,5-diazabicyclo[2.2.1]hept-2-yl]-2-(1-methyl-1H-pyrazol-4-yl)pyrimidine-5-carbonitrile]	970 nM	>10
